Tested on: CD1 mice
Assay: Oral Glucose Tolerance Test (OGTT)
Format: in vivo
Settings: for integrated increase in blood glucose (area under the curve of delta blood glucose) over 120 min following glucose administration: fasted female CD1 mice, mean±SEM
Protocol: Oral Glucose Tolerance Test (OGTT)
Six-week old female CD1 mice (Charles River) were fasted for at least 16 hours. Mice were given 1.5 mg of glucose per gram of body weight orally in water through a gastric savage tube at t=o min and blood was collected from a tail vein at t=0, 10, 20, 30, 60, 90 and 120 min for measurement of blood glucose using a glucose meter (Lifescan). Peptides or vehicle were injected subcutaneously 5 min prior to the glucose administration. Data were expressed as the area under the curve, calculated from the change (delta) in blood glucose for each time, using the trapezoidal rule. Therefore, the data represent the integrated increase in blood glucose over a 120 min period following glucose administration. Data presented are the mean±SEM of 4 to 11 animals per group.
All peptides, including wild-type GLP-1 (7-37), were tested in the OGTT test at 3 different concentrations: 1, 5 and 10 ug per mouse. In a first set of experiments (study A), peptide 3 was tested in comparison with vehicle and hGLP-1(7-37). In a second set of experiments (study B), peptides 1 and 2 were tested in comparison with vehicle and hGLP-1 (7-37).

[1] = studies A and B, 1, 5 and 10 ug per mouse subcutaneously

Substance: (Hexanoyl-trans-3-His^7)-hGLP-1 (7-37) [peptide 3]
- integrated increase in blood glucose (area under the curve of delta blood glucose) over 120 min following glucose administration (study A, 10 ug per mouse subcutaneously 5 min prior to oral glucose 1.5 mg/g): 9±26 mM×120 min

Substance: hGLP(7-37) (HAEGTFTSDVSSYLEGQAAKEFIAWLVKGRG; Glucagon-like peptide 1; UniProt P01275 98-128, looked up, fragment) [wt GLP-1, wild type human glucagon-like peptide 1 (7-37), comparator in the OGTT, reference compound]
- ability to completely suppress the glucose response (in words) [1]: not able to completely suppress the glucose response at any dose
- effect on the glucose response (in words) [1]: dose-related decrease in the glucose response

Substance: ((+,−)-cis-2-Ethylcyclopropylacetic acid-His^7)-hGLP-1 (7-37) [peptide 2]
- integrated increase in blood glucose (area under the curve of delta blood glucose) over 120 min following glucose administration (study B, 5 ug per mouse subcutaneously 5 min prior to oral glucose 1.5 mg/g): −17±67 mM×120 min
- integrated increase in blood glucose (area under the curve of delta blood glucose) over 120 min following glucose administration (study B, 10 ug per mouse subcutaneously 5 min prior to oral glucose 1.5 mg/g): 61±64 mM×120 min
- biological potency compared with wild type GLP-1 (7-37) (in words) (study B, OGTT, subcutaneous): marked increased biological potency

Reference: US20030204063A1, “Modified biological peptides with increased potency” (priority 2003, published 2003)
